# Where two headings read alike, the source gives them in different places.
# Columns and labels:
# C. briggsae complex I = C. briggsae complex I (Caenorhabditis briggsae, UniProt A8X476+A8XFG2+Q8HEC4); assay: In vitro complex I activity assay, C. briggsae mitochondria; format: biochemical
# Experimental: (§1) Mitochondria were isolated from the following free-living nematode strains: C. elegans—N2, CB3474, ECA882, ECA917, ECA1075, ECA1080; C. briggsae—AF16; P. pacificus—PS312; and P. hermaphrodita—B178. With the exception of the P. hermaphrodita strain B178, adult worms of each strain were grown in bulk through liquid culture to obtain mitochondria in sufficient quantities. Due to poor growth in liquid media, mixed stage populations of P. hermaphrodita were washed off and collected from NGM plates seeded with OP50. The isolation of mitochondria from all free-living nematode strains followed the protocol previously outlined in Burns et al.[24]. In brief, a 1 L saturated culture of E. coli HB101 was concentrated 20-fold in 50 mL complete S-medium. ~500,000 L1 worms synchronized from an embryo preparation performed the day prior were added to the S-media/HB101 suspension and grown to adulthood over the course of 3.5 days at 20 °C with shaking at 165 rpm. Following growth, worms were collected in 10 ×15 mL conical tubes and washed 7 times in M9 buffer. Worm suspensions were then combined into a single 15 mL conical tube and diluted to a final volume of 15 mL with M9 buffer. 1 mL aliquots of worm suspension were then distributed to 15 × 1.5 mL screw-cap microcentrifuge tubes and were pelleted at 500 g for 1 min. Excess M9 was aspirated without disturbing the worm pellet. 600 μL ice-cold isolate buffer A (250 mM sucrose, 10 mM Tris (pH 7.5), 1 mM EDTA, 1 mM PMSF (freshly prepared)) and 300 μL cold glass beads were then added to each tube. Tubes were incubated on ice for 10 min, and the worms were then lysed by bead beating (6 x 30 s, with 1 min cooling intervals). Tubes containing worm lysate were centrifuged at 1,000 g for 10 min at 4 °C and the supernatant was transferred to 15 new microcentrifuge tubes on ice. The tubes were centrifuged a second time at 1,000 g for 10 min at 4 °C and the supernatant was once again transferred to 15 new microcentrifuge tubes on ice. These tubes were then centrifuged at 16,000 g for 10 min at 4 °C. The resulting mitochondrial pellet was washed twice by re-suspension in 300 μL of ice-cold isolate buffer B (250 mM sucrose, 10 mM Tris (pH 7.5), 1 mM EDTA). Following the final wash, isolation buffer was aspirated from each tube and the pellets were flash-frozen in ethanol/dry ice and stored at −80 °C until needed.
# (§2) The enzymatic activities of individual ETC complexes (I-IV) were assessed spectrophotometrically in isolated mitochondria using a Varioskan LUX Multimode plate reader (ThermoFisher Scientific). Mitochondrial pellets previously isolated were thawed on ice and resuspended in ice-cold isolation buffer (250 mM sucrose, 10 mM Tris (pH 7.5), 1 mM EDTA). The BCA assay (Walker, 1994) was used to quantify the protein concentration of mitochondria suspensions; solutions were diluted to a concentration of 0.2 mg/mL for use in all assays. For the complex I assay, mitochondria pellets were freeze-thawed on ice three times to increase enzyme accessibility. […] 20 μL mitochondria suspension was then added/mixed with a pipette to initiate the reaction. Immediately following the addition of mitochondria, absorbance was measured (complex I and II: 600 nm; complex III and IV: 550 nm) in 30 s intervals over 15 min. Enzymatic activity was determined in each reaction by plotting absorbance versus time and calculating the slope of the curve during the initial linear phase of the reaction. […] Percent activity of each complex was calculated by dividing the enzyme-specific activity of each well by the enzyme-specific activity of the corresponding solvent controls.
# Chemical solutions were prepared in complex I assay buffer composed of 25 mM KPi buffer (pH 7.5), 3 mg/mL bovine serum albumin (BSA), 80 μM NADH, 60 μM decylubiquinone, 160 μM DCIP, 2 μM antimycin A and 2 mM KCN.
# For preliminary screens of hit compounds, compounds were screened at 100 μM; data are the average of at least three biological replicates.
# P. pacificus complex I = P. pacificus complex I (Pristionchus pacificus, UniProt A0A454XZ18+A0A8R1Z3U8+A4UAP3); assay: In vitro complex I activity assay, P. pacificus mitochondria; format: biochemical
# Experimental: as §1, §2
# Chemical solutions were prepared in complex I assay buffer composed of 25 mM KPi buffer (pH 7.5), 3 mg/mL bovine serum albumin (BSA), 80 μM NADH, 60 μM decylubiquinone, 160 μM DCIP, 2 μM antimycin A and 2 mM KCN. […]
# HEK293 cells = settings: HEK293 cells
# [1] = C. briggsae mitochondria, Mean of replicates, read-out: in vitro complex I activity relative to solvent control
# [2] = C. briggsae mitochondria, single replicate, read-out: in vitro complex I activity relative to solvent control
# [3] = C. briggsae mitochondria, Mean, read-out: in vitro complex I activity relative to solvent control
# [4] = P. pacificus mitochondria, Mean of replicates, read-out: in vitro complex I activity relative to solvent control
# [5] = P. pacificus mitochondria, Mean, read-out: in vitro complex I activity relative to solvent control
# [6] = P. pacificus mitochondria, single replicate, read-out: in vitro complex I activity relative to solvent control
# Chain of C. briggsae complex I (A8X476 31-482): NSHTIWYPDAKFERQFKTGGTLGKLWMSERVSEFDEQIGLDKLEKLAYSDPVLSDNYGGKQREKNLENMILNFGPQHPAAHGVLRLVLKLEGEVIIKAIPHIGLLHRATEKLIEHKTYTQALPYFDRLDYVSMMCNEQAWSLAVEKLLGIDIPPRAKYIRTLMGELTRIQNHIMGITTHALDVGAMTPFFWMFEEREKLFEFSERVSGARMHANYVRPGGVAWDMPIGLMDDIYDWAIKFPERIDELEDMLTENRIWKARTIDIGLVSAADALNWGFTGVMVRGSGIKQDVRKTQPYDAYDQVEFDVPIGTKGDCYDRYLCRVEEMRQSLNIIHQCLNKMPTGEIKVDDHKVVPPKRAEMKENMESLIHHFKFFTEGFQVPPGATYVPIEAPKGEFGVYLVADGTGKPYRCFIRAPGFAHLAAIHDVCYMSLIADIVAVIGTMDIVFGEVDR
# Chain of C. briggsae complex I (A8XFG2 17-199): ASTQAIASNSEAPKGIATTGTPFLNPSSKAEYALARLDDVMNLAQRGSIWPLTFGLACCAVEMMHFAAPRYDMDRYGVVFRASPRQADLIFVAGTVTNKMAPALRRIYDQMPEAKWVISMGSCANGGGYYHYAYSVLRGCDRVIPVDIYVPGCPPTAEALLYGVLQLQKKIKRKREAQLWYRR
# Chain of C. briggsae complex I (Q8HEC4 whole entry): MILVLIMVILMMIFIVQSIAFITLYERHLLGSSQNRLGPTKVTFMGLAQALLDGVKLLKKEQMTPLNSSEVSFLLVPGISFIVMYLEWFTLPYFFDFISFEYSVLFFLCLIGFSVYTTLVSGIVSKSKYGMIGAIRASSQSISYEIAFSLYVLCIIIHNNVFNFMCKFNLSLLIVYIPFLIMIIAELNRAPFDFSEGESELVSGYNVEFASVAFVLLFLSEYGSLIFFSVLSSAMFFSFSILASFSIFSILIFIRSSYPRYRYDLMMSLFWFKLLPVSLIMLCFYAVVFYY
smiles,measurement,setting,value
CC(C)Cc1ccc(C(C)c2nc3ccccc3n2C)cc1 (stereo not shown) [NPD8790],remaining activity at 0.06 µM,C. briggsae complex I; [1],103%
same,remaining activity at 0.06 µM,C. briggsae complex I; [2],95.7%
same,remaining activity at 0.13 µM,C. briggsae complex I; [1],92%
same,remaining activity at 0.13 µM,C. briggsae complex I; [2],86.2%
same,remaining activity at 0.313 µM,C. briggsae complex I; [1],85.6%
same,remaining activity at 0.313 µM,C. briggsae complex I; [2],76.1%
same,remaining activity at 0.625 µM,C. briggsae complex I; [1],74.2%
same,remaining activity at 0.625 µM,C. briggsae complex I; [2],81.9%
same,remaining activity at 1.5 µM,C. briggsae complex I; [1],61.1%
same,remaining activity at 1.5 µM,C. briggsae complex I; [2],70%
same,remaining activity at 3 µM,C. briggsae complex I; [1],43.1%
same,remaining activity at 3 µM,C. briggsae complex I; [2],52.6%
same,remaining activity at 15 µM,C. briggsae complex I; [1],16%
same,remaining activity at 37.5 µM,C. briggsae complex I; [1],11.7%
same,remaining activity at 75 µM,C. briggsae complex I; [1],9.21%
same,remaining activity at 0.0001 µM,C. briggsae complex I; [3],91.5%
same,remaining activity at 0.0001 µM,C. briggsae complex I; [2],87.3%
same,remaining activity at 0.0005 µM,C. briggsae complex I; [3],96.4%
same,remaining activity at 0.0005 µM,C. briggsae complex I; [2],99.9%
same,remaining activity at 0.001 µM,C. briggsae complex I; [3],102%
same,remaining activity at 0.001 µM,C. briggsae complex I; [2],99.6%
same,remaining activity at 0.0025 µM,C. briggsae complex I; [3],115%
same,remaining activity at 0.0025 µM,C. briggsae complex I; [2],108%
same,remaining activity at 0.005 µM,"C. briggsae complex I; C. briggsae mitochondria, 0.005 µM, Mean, read-out: in vitro complex I activity relative to solvent control",119%
same,remaining activity at 0.025 µM,"C. briggsae complex I; C. briggsae mitochondria, 0.025 µM, Mean, read-out: in vitro complex I activity relative to solvent control",109%
same,remaining activity at 0.063 µM,C. briggsae complex I; [3],103%
same,remaining activity at 0.063 µM,C. briggsae complex I; [2],95.7%
same,remaining activity at 0.125 µM,C. briggsae complex I; [3],92%
same,remaining activity at 0.125 µM,C. briggsae complex I; [2],86.2%
same,remaining activity at 0.313 µM,C. briggsae complex I; [3],85.6%
same,remaining activity at 0.625 µM,C. briggsae complex I; [3],74.2%
same,remaining activity at 1.5 µM,C. briggsae complex I; [3],61.1%
same,remaining activity at 3 µM,C. briggsae complex I; [3],43.1%
same,remaining activity at 15 µM,C. briggsae complex I; [3],16%
same,remaining activity at 37.5 µM,C. briggsae complex I; [3],11.7%
same,remaining activity at 75 µM,C. briggsae complex I; [3],9.21%
same,IC50,C. briggsae complex I; purified mitochondria,1600 nM
same,remaining activity at 0.06 µM,"P. pacificus complex I; P. pacificus mitochondria, 0.06 µM, Mean of replicates, read-out: in vitro complex I activity relative to solvent control",105%
same,remaining activity at 0.13 µM,"P. pacificus complex I; P. pacificus mitochondria, 0.13 µM, Mean of replicates, read-out: in vitro complex I activity relative to solvent control",88%
same,remaining activity at 0.313 µM,P. pacificus complex I; [4],82%
same,remaining activity at 0.625 µM,P. pacificus complex I; [4],75.5%
same,remaining activity at 1.5 µM,P. pacificus complex I; [4],68.1%
same,remaining activity at 3 µM,P. pacificus complex I; [4],49.1%
same,remaining activity at 15 µM,P. pacificus complex I; [4],21.4%
same,remaining activity at 37.5 µM,P. pacificus complex I; [4],16.3%
same,remaining activity at 75 µM,P. pacificus complex I; [4],11.3%
same,remaining activity at 0.0001 µM,P. pacificus complex I; [5],85.3%
same,remaining activity at 0.0001 µM,P. pacificus complex I; [6],79.8%
same,remaining activity at 0.0005 µM,P. pacificus complex I; [5],88.9%
same,remaining activity at 0.0005 µM,P. pacificus complex I; [6],82.3%
same,remaining activity at 0.001 µM,"P. pacificus complex I; P. pacificus mitochondria, 0.001 µM, Mean, read-out: in vitro complex I activity relative to solvent control",112%
same,remaining activity at 0.0025 µM,"P. pacificus complex I; P. pacificus mitochondria, 0.0025 µM, Mean, read-out: in vitro complex I activity relative to solvent control",110%
same,remaining activity at 0.005 µM,"P. pacificus complex I; P. pacificus mitochondria, 0.005 µM, Mean, read-out: in vitro complex I activity relative to solvent control",117%
same,remaining activity at 0.013 µM,"P. pacificus complex I; P. pacificus mitochondria, 0.013 µM, Mean, read-out: in vitro complex I activity relative to solvent control",105%
same,remaining activity at 0.025 µM,"P. pacificus complex I; P. pacificus mitochondria, 0.025 µM, Mean, read-out: in vitro complex I activity relative to solvent control",107%
same,remaining activity at 0.063 µM,"P. pacificus complex I; P. pacificus mitochondria, 0.063 µM, Mean, read-out: in vitro complex I activity relative to solvent control",105%
same,remaining activity at 0.125 µM,"P. pacificus complex I; P. pacificus mitochondria, 0.125 µM, Mean, read-out: in vitro complex I activity relative to solvent control",88%
same,remaining activity at 0.313 µM,P. pacificus complex I; [5],82%
same,remaining activity at 0.313 µM,P. pacificus complex I; [6],71.1%
same,remaining activity at 0.625 µM,P. pacificus complex I; [5],75.5%
same,remaining activity at 1.5 µM,P. pacificus complex I; [5],68.1%
same,remaining activity at 3 µM,P. pacificus complex I; [5],49.1%
same,remaining activity at 15 µM,P. pacificus complex I; [5],21.4%
same,remaining activity at 37.5 µM,P. pacificus complex I; [5],16.3%
same,remaining activity at 75 µM,P. pacificus complex I; [5],11.3%
same,IC50,P. pacificus complex I; purified mitochondria,2100 nM
same,toxicity against mammalian cells,HEK293 cells,low toxicity
